This passage reports TGI results from PubChem BioAssay (NCI).

Common to all, as to experiment: NCI tumour cell line growth inhibition, 48 h
Assay [1] relates to TK-10 renal.
In assay [2] the test system is SNB-19 CNS.
Assay [3] deals with OVCAR-3 ovarian.
The test system of assay [4] is SK-OV-3 ovarian.
The test system of assay [5] is A549 NSCLC.
Assay [6] deals with OVCAR-8 ovarian.
For assay [7], the system named is A498 renal.
For assay [8], the system named is U251 CNS.
In assay [9] the test system is ACHN renal.
Assay [10] has as its system OVCAR-5 ovarian.
Assay [11] concerns CCRF-CEM leukemia.
Assay [12] relates to SF-539 CNS.
For assay [13], the system named is MOLT-4 leukemia.
Assay [14] relates to UO-31 renal.

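1) Cells in 96-well plates. 2) Compound, 48 h, 5 concentrations. 3) Linear interpolation between surrounding doses. 4) Unreached endpoint = highest concentration. TGI: total growth inhibition.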 A value given as a limit tells only on which side of the number the result lay.

For the compound `[N-]=[N+]=Nc1ccccc1C(=O)N1C(=O)c2ccccc2C(=O)N(C(=O)c2ccccc2N=[N+]=[N-])c2ccccc21`, the TGI in assay [1], in assay [2], in assay [3], in assay [4], in assay [5] and in [6] was over 100 µM throughout. Further, the TGI was over 100 µM in assay [7]; over 100 µM in assay [8]; over 100 µM in assay [9]; over 100 µM in [10]; 84.6 µM in assay [11]; over 100 µM in assay [12]. Besides, the TGI was 50.7 µM in assay [13] and over 100 µM in [14].

For the compound `O=C(O)c1nc2cc(C(F)(F)F)ccc2nc1Nc1ccc(F)cc1`, the TGI in assay [1] was over 100 µM; in assay [2], over 100 µM; in assay [3], 49.8 µM; in assay [4], over 100 µM; in [5], over 100 µM; in assay [6] it was 81.7 µM. Besides, the TGI was 47.7 µM in [7]; 59.5 µM in [8]; 35.2 µM in assay [9]; 93.5 µM in assay [10]; over 100 µM in [11]; 32.4 µM in assay [12]. Moreover, the TGI in [13] came out at 59.8 µM; in [14], 35.8 µM.

For `C=CCN1C(=O)/C(=C/c2ccco2)N=C1SC/C=C/C`, the TGI in assay [1], in assay [2], in assay [3], in [4], in assay [5] and in assay [6] was over 100 µM throughout. Further, the TGI in assay [7], in assay [8], in assay [9], in assay [10], in [11] and in assay [12] was over 100 µM in each case. The TGI in assay [13] was 54.7 µM; in assay [14] it was over 100 µM.

In the case of `C[N+](C)(C)CC(=O)N/N=C/c1oc(-c2c(O)ccc3ccccc23)c(-c2c(O)ccc3ccccc23)c1[N+](=O)[O-]`, the TGI in assay [1] is 87.1 µM; in [2] it was over 100 µM; in assay [3] it was 44.2 µM; in assay [4], 36.3 µM; in [5], 81.5 µM; in [6] it was 78.6 µM. The TGI came to 31.6 µM in assay [7]; 47.8 µM in assay [8]; 32.5 µM in assay [9]; 60.1 µM in assay [10]; 76.7 µM in assay [11]; 29.4 µM in [12]. In addition, the TGI was 62.3 µM in [13] and 36 µM in assay [14].

Regarding `C/C(CC(=O)Nc1ccc([N+](=O)[O-])cc1)=N\NC(N)=O`, the TGI in assay [1], in assay [2], in assay [3], in assay [4], in assay [5] and in assay [6] was over 100 µM each time. The TGI in [7] is over 100 µM; in [8] it was over 100 µM; in [9], over 100 µM; in assay [10], over 100 µM; in assay [11], over 71.4 µM; in assay [12], over 100 µM. Further, the TGI in assay [13] and in assay [14] was over 100 µM in each case.

On to `C1=NCCN2CCN(CCN=Cc3ccc(cc3)OCc3cccc(n3)COc3ccc1cc3)CC2`, for which the TGI in [1], in assay [2], in assay [3], in assay [4], in assay [5] and in [6] was over 50 µM each time. In addition, the TGI in assay [7], in assay [8], in assay [9], in assay [10], in assay [11] and in [12] was over 50 µM in each case. For the same compound, the TGI in [13] and in assay [14] was over 50 µM throughout.

As to `COCCOC(=O)c1c(C)n([O-])c2cc(Cl)c(Cl)cc2[n+]1=O`, the TGI in assay [1] was 98.3 µM; in assay [2] it was over 100 µM; in assay [3] it was 34.5 µM; in assay [4], 47.5 µM; in assay [5] it was 35.7 µM; in [6], 25.7 µM. Moreover, the TGI was 61.9 µM in assay [7]; over 100 µM in [8]; 29.3 µM in assay [9]; 34.6 µM in [10]; 64.7 µM in [11]; 51.1 µM in assay [12]. Further, the TGI is 62.5 µM in [13] and 10.5 µM in [14].

As to `COC(=O)C(=O)C(C(=O)C(=O)Nc1ccc(F)cc1)c1nc2ccc([N+](=O)[O-])cc2[nH]c1=O` (stereo not drawn), the TGI in assay [1], in assay [2], in assay [3], in assay [4], in assay [5] and in [6] was over 100 µM each time. Further, the TGI in assay [7], in assay [8], in assay [10], in assay [11], in [12] and in assay [14] was over 100 µM each time.

Regarding `C=C(C)C1=CCC[C@]2(C1)N=C(OC)[C@@H](C(C)C)N=C2OC`, the TGI in [1], in assay [2], in [3], in assay [4], in assay [5] and in assay [6] was over 100 µM each time. In addition, the TGI in assay [7], in [8], in assay [9], in assay [10], in assay [11] and in [12] was over 100 µM each time. Moreover, the TGI in [13] and in assay [14] was over 100 µM throughout.

Take `Cc1csc2[n+]1C(=O)/C(=C\c1ccc([N+](=O)[O-])cc1)S2`: the TGI in [1] was 58.8 µM; in [2], 87.3 µM; in assay [3], 33.1 µM; in assay [4] it was 85.1 µM; in assay [5], over 100 µM; in [6], over 100 µM. Besides, the TGI is 45.5 µM in assay [7]; 45.7 µM in assay [8]; 65.7 µM in [9]; over 100 µM in assay [10]; over 100 µM in assay [11]; over 100 µM in assay [12]. The TGI in assay [13] was over 100 µM; in assay [14], 39.3 µM.

Turning to `Cn1c2ccccc2c2c(-c3ccccc3)cc3c(c21)C(=O)C=CC3=O`, the TGI in [1] is 3.4 µM; in [2] it was over 10 µM; in [3], 4.03 µM; in [4] it was over 10 µM; in assay [5], over 10 µM; in assay [6] it was 5.12 µM. Further, the TGI is 6.18 µM in assay [7]; over 9.67 µM in assay [8]; 3.04 µM in [9]; over 10 µM in [10]; 0.538 µM in assay [11]; 4.29 µM in [12]. Moreover, the TGI in [13] was 1.1 µM; in [14], 3.37 µM.

In the case of `COC(=O)c1ccc(C)cc1CC1Cc2cc(C)ccc2C1=O` (stereo not drawn), the TGI in [1], in assay [2], in assay [3], in assay [4], in assay [5] and in assay [6] was over 100 µM each time. Further, the TGI in [7], in assay [8], in assay [9], in [10], in assay [11] and in assay [12] was over 100 µM throughout. The TGI in [13] and in assay [14] was over 100 µM each time.

As to `COC(=O)N/N=C(\Cc1ccccc1)CN(C)C`, the TGI in assay [1], in [3], in [4], in assay [5], in assay [6] and in [7] was over 100 µM each time. Moreover, the TGI in assay [8], in [9], in assay [10], in [11], in assay [12] and in assay [13] was over 100 µM in each case.

On to `NC(N)=N/N=C/c1c(-c2ccc(Cl)cc2)nc2sccn12`, for which the TGI stood at 6.53 µM in [1]; 20.7 µM in assay [2]; 3.6 µM in assay [3]; 10.8 µM in assay [4]; 3.15 µM in assay [5]; 13.2 µM in assay [7]. Also, the TGI in [8] was 3.59 µM; in assay [9], 2.82 µM; in [10], 7.03 µM; in assay [11], 4.23 µM; in [12], 3.36 µM; in assay [13], 5.08 µM. The same compound came in with a TGI in assay [14] of 7.49 µM.

Take `CCOC(=O)c1cccn1S(=O)(=O)c1cc(Cl)ccc1NC(=O)CC`: the TGI in [1], in assay [2], in assay [3], in assay [4], in assay [5] and in assay [7] was over 100 µM in each case. Further, the TGI in assay [8], in assay [9], in [10], in [11], in [12] and in [13] was over 100 µM in each case. The same compound came in with a TGI in assay [14] of 54 µM.

Take `COC1(OC)c2no[n+]([O-])c2CCC1O` (stereo not drawn): the TGI in assay [1], in assay [2], in assay [3], in assay [4], in assay [5] and in assay [6] was over 100 µM in each case. Also, the TGI in [7], in assay [9], in assay [10], in assay [11], in assay [12] and in assay [13] was over 100 µM each time. The TGI in assay [14] was over 100 µM.

Turning to `CCOC(CN(C)C(=O)Nc1cccc2ccccc12)OCC`, the TGI in assay [1], in assay [2], in [3], in assay [4], in [5] and in [6] was over 10 µM in each case. Also, the TGI in assay [7], in assay [8], in assay [9], in assay [11], in assay [12] and in assay [13] was over 10 µM in each case. Moreover, the TGI in assay [14] was over 10 µM.

On to `O=C1/C(=C/c2ccccc2O)N=C(c2ccccc2)N1C1Nc2cc3c(cc2S1)NC(N1C(=O)/C(=C/c2ccccc2O)N=C1c1ccccc1)S3` (stereo not drawn), for which the TGI in assay [1], in assay [3], in assay [4], in assay [6], in [7] and in assay [8] was over 100 µM each time. Moreover, the TGI in [9], in assay [10], in [11], in [12], in [13] and in [14] was over 100 µM each time.

In the case of `C/C(=N\NS(=O)(=O)c1ccc(C)cc1)C(CN1CCCCC1)C(c1ccccc1)c1c(O)c2ccccc2oc1=O` (stereo not drawn), the TGI in assay [1], in [2], in assay [3], in [4], in [5] and in assay [6] was over 100 µM each time. In addition, the TGI in assay [7], in assay [8], in assay [9], in [10], in assay [11] and in assay [12] was over 100 µM throughout. In assay [14], the TGI was over 100 µM.

As to `COc1cc2c(oc(=O)c3c4oc([Si](C)(C)C)cc4cc(OC)c23)c2cccc(OCc3ccccc3)c12`, the TGI in [1] is over 66.8 µM; in [2], 64.1 µM; in assay [3], over 77.9 µM; in assay [4], over 73.2 µM; in assay [5] it was over 100 µM; in [6], over 71.5 µM. Besides, the TGI in assay [7] was over 100 µM; in assay [9] it was over 100 µM; in assay [10], over 100 µM; in assay [11], over 100 µM; in assay [12], 56.5 µM; in assay [13] it was over 100 µM. The compound further registered a TGI in assay [14] of over 100 µM.
